Earlier results on one substance are cited in patent US20090227460A1, “STABILIZED OIL-IN-WATER EMULSIONS INCLUDING MEPTYL DINOCAP” (Dow AgroSciences LLC, priority 2008, published 2009).

In the case of “2,6-dinitro-4-octylphenyl crotonates and 2,4-dinitro-6-octylphenyl crotonates in which ‘octyl’ is a mixture of 1-methylheptyl, 1-ethylhexyl and 1-propylpentyl groups [Meptyl Dinocap]”, the solubility in water was 0.151 µg/mL.
